The test system of assay [1] is tobacco budworm (Heliothis virescens). Kind of assay: Test 5—Control of Tobacco Budworm (insect diet with eggs). In kind it is in vivo. The following applies: 5 days. Here is the method:
Test 5—Control of Tobacco Budworm
For evaluating control of tobacco budworm (Heliothis virescens) the test unit consisted of 96-well-microtiter plates containing an insect diet and 15-25 H. virescens eggs.
The compounds or mixtures were formulated using a solution containing 75% water and 25% DMSO. Different concentrations of formulated compounds or mixtures were sprayed onto the insect diet at 10 μl, using a custom built micro atomizer, at two replications.
(§1) For experimental mixtures in these tests identical volumes of both mixing partners at the desired concentrations respectively, were mixed together.
(§2) After application, microtiter plates were incubated at 28±1° C., 80±5% RH for 5 days. Egg and larval mortality was then visually assessed.

A further assay deals with Septoria tritici. Kind of assay: Test 9—Activity Against Leaf Blotch on Wheat Caused by Septoria tritici (microtest). In kind it is cell-based. The following applies: 7 days after inoculation. The text has this: (§3) The active compounds were formulated separately as a stock solution having a concentration of 10000 ppm in dimethyl sulfoxide.
(§4) The measured parameters were compared to the growth of the active compound-free control variant (100%) and the fungus-free and active compound-free blank value to determine the relative growth in % of the pathogens in the respective active compounds. These percentages were converted into efficacies.
Test 9—Activity Against Leaf Blotch on Wheat Caused by Septoria tritici
The stock solutions were mixed according to the ratio, pipetted onto a micro titer plate (MTP) and diluted with water to the stated concentrations. A spore suspension of SepCoria triticiin an aqueous biomalt solution was then added. The plates were placed in a water vapor-saturated chamber at a temperature of 18° C. Using an absorption photometer, the MTPs were measured at 405 nm 7 days after the inoculation.

Assay [2] has as its system green peach aphid (Myzus persicae). Kind of assay: Test 2—Control of Green Peach Aphid (artificial diet under membrane, systemic). In kind it is in vivo. The note with it: 3 days.
Text: Test 2—Control of Green Peach Aphid
For evaluating control of green peach aphid (Myzus persicae) through systemic means the test unit consisted of 96-well-microtiter plates containing liquid artificial diet under an artificial membrane.
The compounds or mixtures were formulated using a solution containing 75% water and 25% DMSO. Different concentrations of formulated compounds or mixtures were pipetted into the aphid diet, using a custom built pipetter, at two replications.
as §1
After application, 5-8 adult aphids were placed on the artificial membrane inside the microtiter plate wells. The aphids were then allowed to suck on the treated aphid diet and incubated at 23±1° C., 50±5% RH for 3 days. Aphid mortality and fecundity was then visually assessed.

For assay [3], the system named is vetch aphid (Megoura viciae). The assay can be described thus: Test 1—Control of Vetch Aphid (leaf disks, 24-well microtiter plates). The class given is in vivo. The following applies: 5 days. Here is the method:
Test 1—Control of Vetch Aphid
For evaluating control of vetch aphid (Megoura viciae) through contact or systemic means the test unit consisted of 24-well-microtiter plates containing broad bean leaf disks.
The compounds or mixtures were formulated using a solution containing 75% water and 25% Dimethylsulfoxide (DMSO). Different concentrations of formulated compounds or mixtures were sprayed onto the leaf disks at 2.5 μl, using a custom built micro atomizer, at two replications.
as §1
After application, the leaf disks were air-dried and 5-8 adult aphids placed on the leaf disks inside the microtiter plate wells. The aphids were then allowed to suck on the treated leaf disks and incubated at 23±1° C., 50±5% relative humidity (RH) for 5 days. Aphid mortality and fecundity was then visually assessed.

Assay [4] deals with Mediterranean fruitfly (Ceratitis capitata). The assay can be described thus: Test 4—Control of Mediterranean Fruitfly (insect diet with eggs). The note with it: 5 days. In kind it is in vivo. Here is the method: Test 4—Control of Mediterranean Fruitfly
For evaluating control of Mediterranean fruitfly (Ceratitis capitata) the test unit consisted of 96-well-microtiter plates containing an insect diet and 50-80 C. capitata eggs.
The compounds or mixtures were formulated using a solution containing 75% water and 25% DMSO. Different concentrations of formulated compounds or mixtures were sprayed onto the insect diet at 5 μl, using a custom built micro atomizer, at two replications.
as §1, §2

Assay [5] has as its system boll weevil (Anthonomus grandis). Kind of assay: Test 3—Control of Boll Weevil (insect diet with eggs). The class given is in vivo. The note with it: 5 days. Here is the method:
Test 3—Control of Boll Weevil
For evaluating control of boll weevil (Anthonomus grandis) the test unit consisted of 24-well-microtiter plates containing an insect diet and 20-30 A. grandis eggs.
The compounds or mixtures were formulated using a solution containing 75% water and 25% DMSO. Different concentrations of formulated compounds or mixtures were sprayed onto the insect diet at 20 μl, using a custom built micro atomizer, at two replications.
as §1
After application, microtiter plates were incubated at 23±1° C., 50±5% RH for 5 days. Egg and larval mortality was then visually assessed.

The subject of another assay is Alternaria solani. Kind of assay: Test 8—Activity Against Early Blight on Tomatoes Caused by Alternaria solani (microtest). The class given is cell-based. The following applies: 7 days after inoculation.
Text: as §3, §4
Test 8—Activity Against Early Blight on Tomatoes Caused by Alternaria solani
The stock solutions were mixed according to the ratio, pipetted onto a micro titer plate (MTP) and diluted with water to the stated concentrations. A spore suspension of Alternaria solani in an aqueous biomalt solution was then added. The plates were placed in a water vapor-saturated chamber at a temperature of 18° C. Using an absorption photometer, the MTPs were measured at 405 nm 7 days after the inoculation.

The test system of a further assay is Pyricularia oryzae. In kind it is cell-based. The note with it: 7 days after inoculation.
The test system of a further assay is Botrytis cinerea. The assay can be described thus: Test 6—Activity Against the Grey Mold Botrytis cinerea in the Microtiterplate Test. The class given is cell-based. The following applies: 7 days after inoculation.
Text: as §3, §4
Test 6—Activity Against the Grey Mold Botrytis cinerea in the Microtiterplate Test
The stock solutions were mixed according to the ratio, pipetted onto a micro titer plate (MTP) and diluted with water to the stated concentrations. A spore suspension of Botrci cinerea in an aqueous biomalt solution was then added. The plates were placed in a water vapor-saturated chamber at a temperature of 18° C. Using an absorption photometer, the MTPs were measured at 405 nm 7 days after the inoculation.

Setting [6] is: 0 + 0.08 ppm (second compound alone).
The mark [7] stands for this setting: 50 + 0 ppm (first compound alone).
Setting [8] is: 2 + 0 ppm (first compound alone).
The mark [9] stands for this setting: 10 + 0 ppm (first compound alone).
The mark [10] stands for this setting: 0 + 0.4 ppm (second compound alone).
Setting [11] is: 0 + 10 ppm (second compound alone).
[12] abbreviates: 0 + 2 ppm (second compound alone).
Setting [13] is: 0 + 20 ppm (second compound alone).

Where “and” joins values, the source holds several entries; their conditions need not be identical. Equal entries are not always repeated. Where two headings read alike, the source gives them in different places.

18 compounds from US20130267476A1, “Pesticidal Active Mixtures Comprising Pyrazole Compounds” (BASF SE, priority 2010, published 2013) can be followed below.

Consider `CC1=NNC(=O)N(/N=C/c2cccnc2)C1` [Pymetrozine, pymetrozine], for which the “Average Control %” value in assay [1] (0 + 400 ppm (second compound alone)) was found to be 50%.

`CC(C)(C)C(O)(CCc1ccc(Cl)cc1)Cn1cncn1` (stereo not shown) [Tebuconazole, 1-(4-chlorophenyl)-4,4-dimethyl-3-[1,2,4]triazol-1-ylmethylpentan-3-ol] returned an Observed efficacy % with Septoria tritici (0.25 ppm) of 57%.

As for `CCOC(=O)OC1=C(c2cc(C)ccc2C)C(=O)N[C@]12CC[C@@H](OC)CC2` [Spirotetramat, spirotetramat], the “Average Control %” value in [2] (0 + 3.2 ppm (second compound alone)) and in assay [2] (0 + 16 ppm (second compound alone)) was 0% in each case.

The compound `COC(=O)N(OC)c1ccccc1COc1ccn(-c2ccc(Cl)cc2)n1` [Pyraclostrobin, methyl N-{2-[1-(4-chlorophenyl)-1H-pyrazol-3-yloxymethyl]phenyl}(N-methoxy)carbamate] returned an Observed efficacy % in the assay with Septoria tritici (0.004 ppm) of 46%.

As to abamectin, the “Average Control %” value in assay [3] (setting [6]) was determined as 25%.

In the assay with Septoria tritici (1 ppm), `Cc1c(C(=O)N(C)c2ccnnc2)cnn1CC(F)(F)F` [I-76] registered an Observed efficacy % of 11%. In addition, the “Average Control %” value in [1] (setting [7]) is recorded as 0%; in assay [2] (0.4 + 0 ppm (first compound alone)), 0%; in assay [2] (setting [8]), 0%; in assay [2] (setting [7]), 50%; in assay [4] (setting [9]), 0%; in [3] (setting [8]), 0%. Further, the “Average Control %” value in assay [3] (setting [9]) and in assay [3] (setting [7]) was 0% throughout.

Consider `CON=C(C(=O)OC)c1ccccc1CON=C(C)c1cccc(C(F)(F)F)c1` [Trifloxystrobin, methyl (E)-methoxyimino-{(E)-α-[1-(α,α,α-trifluoro-mtolyl)ethylideneaminooxy]-o-tolyl}acetate], for which, in the assay with Septoria tritici (0.016 ppm), the Observed efficacy % came out at 71%.

Take `CNC(=O)c1cc(Cl)cc(C)c1NC(=O)c1cc(Br)nn1-c1ncccc1Cl` [Chloranthraniliprole, chloranthraniliprole]: the “Average Control %” value is reported as 0% in [2] (setting [10]), 0% in assay [4] (setting [11]), 25% in assay [3] (setting [11]) and 25% in [5] (setting [10]).

Take `O=[N+]([O-])NC1=NCCN1Cc1ccc(Cl)nc1` [Imidacloprid, imidacloprid]: the “Average Control %” value in [4] (setting [11]) worked out at 0%; in assay [3] (0 + 0.016 ppm (second compound alone)), 0%; in assay [3] (setting [6]) it was 0%; in assay [3] (setting [10]), 25%.

Regarding `CC(c1ccc(C(F)(F)F)nc1)S(C)(=O)=NC#N` (stereo not shown) [Sulfoxaflor, sulfoxaflor], the “Average Control %” value in assay [2] (0 + 0.0064 ppm (second compound alone)) was 0%.

As to `C[C@]1(COC(=O)CC2CC2)[C@@H]2C[C@H](OC(=O)CC3CC3)[C@@]3(C)Oc4cc(-c5cccnc5)oc(=O)c4[C@H](O)[C@@H]3[C@@]2(C)CC[C@@H]1OC(=O)CC1CC1` [A27.2], the “Average Control %” value is reported as 0% in assay [2] (0 + 0.0008 ppm (second compound alone)) and 50% in assay [2] (0 + 0.004 ppm (second compound alone)).

As to `CN(C(=O)c1cnn(C)c1C(F)F)c1cccnc1` [I-17], the Observed efficacy % with Alternaria solani (63 ppm) is 4%; in the assay on Pyricularia oryzae (63 ppm) it was 0%. Besides, the “Average Control %” value in assay [3] (setting [8]) is on record as 0%.

As for `N#Cc1nn(-c2c(Cl)cc(C(F)(F)F)cc2Cl)c(N)c1[S+]([O-])C(F)(F)F` (stereo not shown) [Fipronil, fipronil], the “Average Control %” value in [2] (setting [12]) and in [3] (setting [12]) was 0% in each case.

In the case of `N#CCNC(=O)c1cnccc1C(F)(F)F` [Flonicamid, flonicamid], the figures for the “Average Control %” value in assay [2] (0 + 4 ppm (second compound alone)), in assay [3] (setting [13]) and in assay [5] (setting [13]) were 0%, 25% and 0%, respectively.

As to `OC(Cc1ccccc1Cl)(Cn1nc[nH]c1=S)C1(Cl)CC1` (stereo not shown) [Prothioconazole, 2-[2-(1-chlorocyclopropyl)-3-(2-chlorophenyl)-2-hydroxypropyl]-2,4-dihydro[1,2,4]triazole-3-thione], the Observed efficacy % is on record as 22% with Alternaria solani (0.25 ppm), 15% with Pyricularia oryzae (0.25 ppm) and 45% with Botrytis cinerea (0.25 ppm).

With `CN1COCN(Cc2cnc(Cl)s2)/C1=N\[N+](=O)[O-]` [Thiamethoxam, thiamethoxam], the “Average Control %” value in assay [4] (setting [11]) and in [3] (setting [12]) was 25% in each case.

As to `CC1(C)C(C=C(Cl)Cl)C1C(=O)OC(C#N)c1cccc(Oc2ccccc2)c1` (stereo not drawn) [α-cypermethrin, alpha-cypermethrin], the “Average Control %” value in [3] (setting [10]) is listed as 25%; in assay [3] (setting [12]), 0%; in assay [5] (setting [10]) it was 25%.

As for `Cc1c(C(=O)N(C)c2ccnnc2)cnn1C(C)C` [I-52], the Observed efficacy % in the assay on Septoria tritici (4 ppm) is 18%; in the assay on Septoria tritici (16 ppm), 18%; in the assay on Alternaria solani (63 ppm), 0%; with Pyricularia oryzae (63 ppm) it was 0%; in the assay with Botrytis cinerea (63 ppm), 4%. Besides, the “Average Control %” value in [2] (0.08 + 0 ppm (first compound alone)) is 0%; in assay [2] (setting [8]), 25% and 50%; in [4] (setting [7]), 0%; in [3] (setting [9]) it was 50% and 25%; in [5] (setting [8]) it was 0%; in [5] (setting [9]), 0%. Besides, in assay [5] (setting [7]), the “Average Control %” value came to 0%.
